Data reported in patent publication US3962446A, “Analgesic compositions containing 2-cyanoalkylbenzomorphan derivatives and salts thereof” (priority 1971, dated 1976).
Like-named read-outs stand apart in the source and are kept apart here.

Assays:
[1] = Subcutaneous writhing test (antagonism of the syndrome produced by intraperitoneal acetic acid); assay type: in vivo, mice; conditions: Mus musculus, sc
Experimental: […]. Note: The test was based on the specific antagonism of the test compound to the typical syndrome produced by intraperitoneal injection of 0.6% aqueous acetic acid. The syndrome was characterized by intermittent contractions of the abdomen, twisting and turning of the trunk and extension of the hind legs. A group of 5 mice was used for each dose level. The test compound was administered subcutaneously 20 minutes before the injection of acetic acid. […] The ED50 value was calculated according to the Litchfeld-Wilcoxon's method.

[2] = Long term animal tests for addiction / physical dependency (daily oral or subcutaneous administration for over one month); assay type: in vivo; conditions: rats, orally or subcutaneously every day for over one month
Description: On account of this addiction liability, these analgesics are severely restricted in a therapeutic use.

[3] = Abstinence syndrome (bodyweight decrease) on the day after drug withdrawal following 4 weeks of subcutaneous dosing; assay type: in vivo, male rats of Wistar strain; set-up: key: +++: severe decrease (about 5% decrease); ++: moderate decrease; +: mild decrease; -: no decrease; conditions: male Wistar rats, 20 mg/kg/day for 4 weeks, subcutaneous twice a day
Experimental: Compound for 4 weeks) syndrome
Note: Groups of male rats of Wistar strain (bodyweight, 150 g), each grou
consisting of 20 male rats, were subcutaneously given the test compound
twice a day for 4 consecutive weeks. On the next day after drug
withdrawal, the bodyweight was measured. The symbols have the following
meanings: +++, severe decrease (about 5% decrease); ++, moderate decrease
+, mild decrease; -, no decrease. The marked decrease is taken as an […]

[4] = cited from earlier work
[5] = mice, subcutaneous, 20 minutes before 0.6% acetic acid i.p., Litchfeld-Wilcoxon's method, read-out: ED50

In the case of `CC(=O)Oc1ccc2c(c1)C1(C)CCN(CCC#N)C(C2)C1C` (stereo not drawn) [2'-Acetoxy-2-(β-cyanoethyl)-5,9-dimethyl-6,7-benzomorphan], the ED50 [1, 5] is reported as 0.5 mg/kg, the “addiction / physical dependency” value [2] is reported as “do not show addiction in long term animal tests” and the Abstinence syndrome [3] is reported as “-”.

In the case of `CC1C2Cc3ccc(O)cc3C1(C)CCN2C` (centres unmarked) [2'-Hydroxy-2,5,9-trimethyl-6,7-benzomorphan, reference compound], the ED50 [1, 5] is listed as 3.5 mg/kg, the Abstinence syndrome [3] is listed as “++” and the addiction liability ([4]; prior art compounds) is listed as “show an addiction liability”. The analgesic activity ([4]; prior art, U.S. Pat. No. 3,138,603) was “potent analgesic activity”.

For `CC1C2Cc3ccc(O)cc3C1(C)CCN2CCC#N` (stereo not drawn) [2'-Hydroxy-2-(β-cyanoethyl)-5,9-dimethyl-6,7-benzomorphan], the ED50 [1, 5] was 0.9 mg/kg, the “addiction / physical dependency” value [2] was “do not show addiction in long term animal tests” and the Abstinence syndrome [3] was “-”.

With `CC12CCN(CCC#N)C(Cc3ccc(O)cc31)C2` (stereo not drawn) [2'-Hydroxy-2-(β-cyanoethyl)-5-methyl-6,7-benzomorphan] the ED50 [1, 5] was 2.9 mg/kg, the “addiction / physical dependency” value [2] was “do not show addiction in long term animal tests” and the Abstinence syndrome [3] was “-”.

In the case of `CC1C2Cc3ccc(O)cc3C1(C)CCN2CCCC#N` (centres unmarked) [2'-Hydroxy-2-(γ-cyanopropyl)-5,9-dimethyl-6,7-benzomorphan], the ED50 [1, 5] is reported as 3 mg/kg and the Abstinence syndrome [3] is reported as “-”.

With `CCC1C2Cc3ccc(O)cc3C1(C)CCN2CCCC#N` (centres unmarked) [2'-Hydroxy-2-(γ-cyanopropyl)-5-methyl-9-ethyl-6,7-benzomorphan] the ED50 [1, 5] was 1.5 mg/kg and the Abstinence syndrome [3] was “-”.

For `CCC1C2Cc3ccc(O)cc3C1(CC)CCN2CCCC#N` (centres unmarked) [2'-hydroxy-2-(γ-cyanopropyl)-5,9-diethyl-6,7-benzomorphan], the ED50 [1, 5] was 0.3 mg/kg and the Abstinence syndrome [3] was “-”.

With `CCC12CCN(CCCC#N)C(Cc3ccc(O)cc31)C2C` (centres unmarked) [2'-hydroxy-2-(γ-cyanopropyl)-5-ethyl-9-methyl-6,7-benzomorphan] the ED50 [1, 5] was 0.19 mg/kg, the “addiction / physical dependency” value [2] was “do not show addiction in long term animal tests” and the Abstinence syndrome [3] was “-”.

With `CC12CCN(CCC#N)C(Cc3ccccc31)C2` (stereo not drawn) [2-(β-Cyanoethyl)-5-methyl-6,7-benzomorphan] the Abstinence syndrome [3] was “-”.

`COc1ccc2c3c1O[C@H]1[C@@H](O)C=C[C@H]4[C@@H](C2)N(C)CC[C@@]341` [Methylmorphine, reference compound] showed an ED50 [1, 5] of 14 mg/kg.

In the case of `CN1CC[C@]23c4c5ccc(O)c4O[C@H]2[C@@H](O)C=C[C@H]3[C@H]1C5` [Morphine, reference compound], the ED50 [1] is reported as 1.4 mg/kg.

`CC(C)=CCN1CCC2(C)c3cc(O)ccc3CC1C2C` (centres unmarked) [Pentazocine, 2'-hydroxy-2-(3"-methyl-2"-butenyl)-5,9-dimethyl-6,7-benzomorphan, reference compound] showed an ED50 [1, 5] of 17.5 mg/kg.
